The subject of data set [1] is H-1299 human lung cancer cells. Briefly: MTT growth inhibition of human cancer cells, 24 h (Part 1). The format is cell-based. The note with it: H-1299, 24 h, 0 to 80 μM. The protocol: (§1) The reading reflected the number of viable cells and was expressed as a percentage of viable cells in the control. Both HCT-116 and H-1299 cells were cultured in McCoy's 5A medium. All of the above media were supplemented with 10% fetal bovine serum, 1% penicillin/streptomycin, and 1% glutamine, and the cells were kept in a 37° C. incubator with 95% humidity and 5% CO2.

Data set [2] concerns HCT-116 human colon cancer cells. The description is as above. The format is cell-based. The note with it: HCT-116, 24 h, 0 to 80 μM. The protocol: as §1
In data set [3] the test system is human lung fibroblast cells IMR-90. Briefly: in vitro. It counts as cell-based. As to the method: Growth inhibition of human cancer and normal cells. Cell growth inhibition was determined by a MTT colorimetric assay. Human colon cancer cells HCT-116, human lung cancer cells H-1299, human colon fibroblast cells CCD-18Co, and human lung fibroblast cells IMR-90 were plated in 96-well microtiter plates with 3000 cells/well and allowed to attach for 24 h at 37° C. […] After the cells were cultured for 48 h, the medium was aspirated and cells were treated with 200 μL fresh medium containing 2.41 mmol/L MTT. […] The reading reflected the number of viable cells and was expressed as a percentage of viable cells in the control. Both HCT-116 and H-1299 cells were cultured in McCoy's 5A medium. CCD-18Co and IMR-90 cells were cultured in Eagle's modified essential medium (EMEM). All of the above media were supplemented with 10% fetal bovine serum, 1% penicillin/streptomycin, and 1% glutamine, and the cells were kept in a 37° C. incubator with 95% humidity and 5% CO2.

Data set [4] is described as follows: Kinetic study of [6]-shogaol metabolism to M6 in liver microsomes. The format is in vitro ADME, rat. The note with it: rat liver microsomes 0.1 mg/mL, 30 min. The protocol:
All incubations were performed in triplicate.
On the technique in general: Liver microsomes are vesicles of endoplasmic reticulum, rich in cytochrome P450 enzymes.

For data set [5], the system named is IMR90 normal human lung cells. The data set can be described thus: MTT cell viability (Part 4). It counts as cell-based. The following applies: read-out: IC50 (toxicity, MTT).
The subject of data set [6] is HCT-116, HT-29, H-1299, and CL-13 cancer cell lines. Briefly: Metabolism of [6]-shogaol in cancer cells. The format is in vitro ADME. The note with it: 10 μM, HCT-116, HT-29, H-1299, CL-13, up to 24 h. As to the method: Cells (1.0×10^6) were plated in six-well culture plates and were allowed to attach for 24 h at 37° C. in 5% CO2 incubator. [6]-Shogaol [in dimethyl sulfoxide (DMSO)] was added to McCoy's 5A medium (containing 10% fetal bovine serum, 1% penicillin/streptomycin, and 1% glutamine) to reach a final concentration of (10 μM) and was incubated with different cancer cell lines (HCT-116, HT-29, H-1299, and CL-13). At different time points (0, 30 min, 1, 2, 4, 6, 8, and 24 h), 190-μl samples of supernatant were taken and transferred to vials containing (10 μl) of 0.2% ascorbic acid to stabilize [6]-shogaol and its metabolites. The metabolites were extracted from media by addition of equal volume of acetonitrile and centrifugation, in which the supernatant was harvested. The samples were then diluted 5-fold in acetonitrile and were analyzed by HPLC ECD.

For data set [7], the system named is H-1299 cells. Briefly: TUNEL apoptosis assay (Part 2). The format is cell-based, human. The note with it: H-1299, 20 or 40 μM, 24 hours.
Data set [8] relates to HCT-116 colon cancer cells. Briefly: Apoptosis by FACS analysis of propidium iodide-stained cells. It counts as cell-based, human. The following applies: HCT-116, 40 μM, 24 hours. As to the method: (§2) Apoptosis was determined by FACS analysis of propidium iodide (PI)-stained cells. In brief, cells were trypsinized, washed with cold phosphate-buffered saline (PBS), fixed in ice-cold 70% ethanol for 1 hour, and then resuspended in 2 mL PBS supplemented with 10 μL RNase (100 mg/ml) and incubated at 37° C. for 30 min. After incubation, DNA was stained with 1 mg/mL PI in PBS. Cell staining was analyzed using a Cell Lab Quanta™ SC flow cytometer (Beckman Coulter, Danvers, Mass.) and data were processed using FCS Express software (DeNovo Software, Los Angeles, Calif.). The percentage of apoptotic cells in each sample was determined based on the sub G0 peaks detected in monoparametric histograms.
On the technique in general: In flow cytometry, cells or beads pass a laser one at a time.

Data set [9] relates to HT-29 colon cancer cells. The description is as above. The following applies: HT-29, 40 μM, 24 hours. It counts as cell-based, human. The protocol:
as §2

For data set [10], the system named is HCT-116 cells. Briefly: Measurement of reactive oxygen species (DCFH-DA). The format is cell-based, human. The note with it: HCT-116, 40 μM, after two hours. The source says:
The assay employed the cell-permeable fluorogenic probe 2′,7′-dichlorodihydrofluorescin diacetate [DCFH-DA] (Sigma Aldrich, St. […] In brief, DCFH-DA is diffused into cells and is deacetylated by cellular esterases to non-fluorescent 2′,7′-dichlorodihydrofluorescin (DCFH), which is rapidly oxidized to highly fluorescent 2′,7′-dichlorodihydrofluorescein (DCF) by intracellular hydrogen peroxide, or other low molecular weight peroxides. Measured fluorescence intensity is thus proportional to the amount of such peroxides in the cell at a given time. Human colon cancer cells HCT-116 or HT-29 were seeded in 96-well black-sided, clear-bottomed culture plates, with 5000 cells/well and were allowed to adhere for 24 hours in a 37° C. incubator with 5% CO2. […] After desired incubation times of 0, 2, 4, 8, or 24 hours, media and test compounds were aspirated. Cells were washed three times with 200 μL PBS before addition of 100 μL 1 mM DCF-DA. The fluorogenic probe permeated cell membranes and was processed to DCF for one hour at 37° C. After incubation, plates were immediately placed in a Biotek microplate reader to measure fluorescence at wavelengths of 485 (excitation) and 528 (emission). Raw values were normalized to DMSO control for each time point and are presented as fold induction versus 0 hour time point (n=3).

Results on 2 compounds are retold here after patent publication US9549911B2, “Ginger metabolites and uses thereof” (North Carolina A&T State University, priority 2012, dated 2017).

Like-named read-outs stand apart in the source and are kept apart here.

The term IC50 denotes the concentration that gives 50% inhibition.

With `CCCCC/C=C/C(=O)CCc1ccc(O)c(OC)c1` [[6]-shogaol, reference compound], the IC50 in [1] is 16.9 µM; in data set [2] it was 18.7 µM; in data set [3], 36.6 µM; in [5] (listed as 6S), 36.6 µM. Also, the “Vmax of M6 formation” value in [4] is 8.19+/−0.48 nanomoles per minute per milli. In addition, the “metabolism in cancer cell lines” value in data set [6] is reported as “extensively metabolized”.

As for `CCCCCC(CC(=O)CCc1ccc(O)c(OC)c1)SC[C@H](N)C(=O)O` (stereo partly drawn) [M2, 5-cysteinyl-[6]-shogaol], the IC50 in data set [3] and in data set [5] was 98.3 µM throughout. The “induction of apoptosis (TUNEL) versus DMSO” value in data set [7] is recorded as “Apoptosis was observed”. Further, the “apoptotic cells (FACS, PI)” value in data set [8] is recorded as 26.34%; in data set [9], 14.38%. Also, the ROS induction result in data set [10] is “greater than 2 fold”.
